Test results: PubChem BioAssay AID624425 (The Scripps Research Institute Molecular Screening Center, 2012);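 active = compounds whose IC50, the dose halving PP5 enzyme activity, is under 25 micromolar; inactive = the rest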

target: Serine/threonine-protein phosphatase 5 (Homo sapiens) (UniProt P53041); assay: PP5 inhibitor potency, OMFP substrate, dose response, biochemical, fluorescence, round 5, powder samples (AID 624425); conditions: purified PP5c, OMFP dephosphorylation
Sequence (P53041 whole entry, looked up): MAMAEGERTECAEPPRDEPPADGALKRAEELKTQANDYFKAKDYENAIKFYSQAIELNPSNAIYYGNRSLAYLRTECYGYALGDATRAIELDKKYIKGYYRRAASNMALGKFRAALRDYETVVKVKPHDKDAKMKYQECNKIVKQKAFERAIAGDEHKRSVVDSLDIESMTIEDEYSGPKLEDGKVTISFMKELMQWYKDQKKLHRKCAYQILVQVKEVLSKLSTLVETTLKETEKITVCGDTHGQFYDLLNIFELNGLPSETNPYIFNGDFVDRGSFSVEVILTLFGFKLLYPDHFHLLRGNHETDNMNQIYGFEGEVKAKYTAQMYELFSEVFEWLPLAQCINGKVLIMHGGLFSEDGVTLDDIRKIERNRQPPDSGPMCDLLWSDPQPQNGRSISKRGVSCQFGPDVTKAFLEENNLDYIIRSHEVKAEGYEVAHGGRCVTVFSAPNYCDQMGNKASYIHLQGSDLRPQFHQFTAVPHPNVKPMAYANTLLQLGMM

IC50, active:
O=C(O)c1n[nH]nc1-c1ccccc1O 7.74 µM
O=C(O)c1n[nH]nc1-c1ccccc1F 7.75 µM
O=C(O)c1n[nH]nc1-c1ccc(F)cc1 24.1 µM
O=C(O)c1n[nH]nc1-c1cccc(F)c1 17.8 µM
COc1ccccc1-c1n[nH]nc1C(=O)O 6 µM
COc1ccc(-c2n[nH]nc2C(=O)O)cc1 23.1 µM
COc1cccc(-c2n[nH]nc2C(=O)O)c1 10.9 µM
